In the supplement of paper PMC11061612:

Columns and labels:
Assay in all cases: Bliss excess, mean over the matrix (fraction); higher = more synergy
[1] = system: TE-4 (Esophageal Squamous Cell Carcinoma)
Method in brief: (§1)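 Bliss excess equals the observed combination effect minus the expected value EA + EB − EA·EB, where EA and EB are the effects of each agent alone. Combination Emax is the second-highest inhibition within the matrix. Inhibition was scaled from CellTiter-Glo 2.0 luminescence, with 0 set by vehicle wells and 1 by blank wells, after 72 hours of two-drug dosing of cells plated in 1536-well plates.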

[2] = system: COLO-829 (Melanoma)
Method in brief: as §1

[3] = system: RKO (Colorectal Carcinoma)
Method in brief: as §1

[4] = system: SUP-T1 (T-Lymphoblastic Leukemia)
Method in brief: as §1

[5] = system: RT-112 (Bladder Carcinoma)
Method in brief: as §1

[6] = system: LU-139 (Small Cell Lung Carcinoma)
Method in brief: as §1

[7] = system: KARPAS-231 (B-Cell Non-Hodgkin's Lymphoma)
Method in brief: as §1

[8] = system: SW1271 (Small Cell Lung Carcinoma)
Method in brief: as §1

[9] = system: MDA-MB-468 (Breast Carcinoma)
Method in brief: as §1

[10] = system: LB771-HNC (Head and Neck Carcinoma)
Method in brief: as §1

[11] = system: HMV-II (Melanoma)
Method in brief: as §1

[12] = system: PCI-30 (Head and Neck Carcinoma)
Method in brief: as §1

[13] = system: CAL-51 (Breast Carcinoma)
Method in brief: as §1

[14] = system: KYSE-410 (Esophageal Squamous Cell Carcinoma)
Method in brief: as §1

[15] = system: NCI-H28 (Mesothelioma)
Method in brief: as §1

[16] = system: CTB-1 (B-Cell Non-Hodgkin's Lymphoma)
Method in brief: as §1

[17] = system: 8305C (Thyroid Gland Carcinoma)
Method in brief: as §1

[18] = system: CAL-54 (Kidney Carcinoma)
Method in brief: as §1

[19] = system: OC-314 (Ovarian Carcinoma)
Method in brief: as §1

[20] = system: NCI-H747 (Colorectal Carcinoma)
Method in brief: as §1

With `Cc1c2c(nn1C)CSCc1cc(n(C)n1)CSc1cc(c3ccccc3c1)OCCCc1c(C(=O)O)n(C)c3c-2c(Cl)ccc13` [AZD5991] + Cc1cc2ncnn2cc1Nc1ncc2c(n1)n(C1CCOCC1)c(=O)n2C [AZD7648] (first compound max 1 µM, 7x7, partner max 10 µM) the Bliss excess [1] was -0.025, the Bliss excess [2] was -0.0341 and the Bliss excess [3] was -0.0301. For the same molecule, the Bliss excess [4] was 0.0115, the Bliss excess [5] was -0.0298 and the Bliss excess [6] was -0.013. It also gave a Bliss excess [7] of -0.0639, a Bliss excess [8] of -0.0308 and a Bliss excess [9] of 0.008. For the same molecule, the Bliss excess [10] was -0.0251, the Bliss excess [11] was -0.067 and the Bliss excess [12] was -0.0572. It also gave a Bliss excess [13] of -0.0529, a Bliss excess [14] of -0.0184 and a Bliss excess [15] of -0.0051. The Bliss excess [16] was -0.0345, the Bliss excess [17] was -0.0739 and the Bliss excess [18] was -0.0697. It also gave a Bliss excess [19] of 0.0063 and a Bliss excess [20] of -0.0703.

In the case of `Cc1c2c(nn1C)CSCc1cc(n(C)n1)CSc1cc(c3ccccc3c1)OCCCc1c(C(=O)O)n(C)c3c-2c(Cl)ccc13` [AZD5991] + Cn1cnc2c(F)c(Nc3ccc(Br)cc3Cl)c(C(=O)NOCCO)cc21 [Selumetinib] (first compound max 1 µM, 7x7, partner max 3 µM), the Bliss excess [1] is reported as 0.0329, the Bliss excess [2] is reported as 0.0295 and the Bliss excess [3] is reported as 0.0143. The Bliss excess [4] was -0.0246, the Bliss excess [5] was 0.102 and the Bliss excess [6] was -0.0283. The Bliss excess [7] was -0.0645, the Bliss excess [8] was -0.0287 and the Bliss excess [9] was -0.0389. For the same molecule, the Bliss excess [10] was -0.0118, the Bliss excess [11] was 0.0066 and the Bliss excess [12] was -0.0352. It also gave a Bliss excess [13] of 0.0634, a Bliss excess [14] of -0.0058 and a Bliss excess [15] of -0.026. For the same molecule, the Bliss excess [16] was -0.02, the Bliss excess [17] was -0.0511 and the Bliss excess [18] was 0.0203. It also gave a Bliss excess [19] of -0.0313 and a Bliss excess [20] of 0.0032.

With `C[C@@H]1COCCN1c1cc(C2([S@](C)(=N)=O)CC2)nc(-c2ccnc3[nH]ccc23)n1` [AZD6738] + O=C(c1cc(Cc2n[nH]c(=O)c3ccccc23)ccc1F)N1CCN(C(=O)C2CC2)CC1 [Olaparib] (first compound max 10 µM, 7x7, partner max 10 µM) the Bliss excess [1] was 0.0082, the Bliss excess [2] was -0.0067 and the Bliss excess [3] was 0.0101. For the same molecule, the Bliss excess [4] was -0.0289, the Bliss excess [5] was -0.0643 and the Bliss excess [6] was 0.0115. For the same molecule, the Bliss excess [7] was -0.0708, the Bliss excess [8] was -0.016 and the Bliss excess [9] was -0.0227. For the same molecule, the Bliss excess [10] was 0.0337, the Bliss excess [11] was -0.0296 and the Bliss excess [12] was -0.052. It also gave a Bliss excess [13] of 0.0407, a Bliss excess [14] of -0.0219 and a Bliss excess [15] of 0.011. The Bliss excess [16] was -0.0454, the Bliss excess [17] was -0.0594 and the Bliss excess [18] was 0.045. For the same molecule, the Bliss excess [19] was 0.0247 and the Bliss excess [20] was 0.0096.

For `Cc1cc2ncnn2cc1Nc1ncc2c(n1)n(C1CCOCC1)c(=O)n2C` [AZD7648] + C=CCn1c(=O)c2cnc(Nc3ccc(N4CCN(C)CC4)cc3)nc2n1-c1cccc(C(C)(C)O)n1 [AZD1775] (first compound max 10 µM, partner max 1 µM), the Bliss excess [1] was -0.079, the Bliss excess [2] was -0.0047 and the Bliss excess [3] was -0.032. For the same molecule, the Bliss excess [4] was 0.0169, the Bliss excess [5] was 0.0239 and the Bliss excess [6] was -0.0642. For the same molecule, the Bliss excess [7] was -0.0309, the Bliss excess [8] was -0.0199 and the Bliss excess [9] was -0.0044. The Bliss excess [10] was -0.0078, the Bliss excess [11] was -0.0714 and the Bliss excess [12] was 0.0419. For the same molecule, the Bliss excess [13] was -0.05, the Bliss excess [14] was -0.0094 and the Bliss excess [15] was 0.0291. For the same molecule, the Bliss excess [16] was -0.0542, the Bliss excess [17] was -0.0825 and the Bliss excess [18] was 0.016. The Bliss excess [19] was 0.0579 and the Bliss excess [20] was -0.0108.

`Cc1cc2ncnn2cc1Nc1ncc2c(n1)n(C1CCOCC1)c(=O)n2C` [AZD7648] + CCN(CCO)CCCOc1ccc2c(Nc3cc(CC(=O)Nc4cccc(F)c4)[nH]n3)ncnc2c1 [AZD2811] (first compound max 10 µM, 7x7, partner max 1 µM) gave a Bliss excess [1] of 0.0096, a Bliss excess [2] of -0.0034 and a Bliss excess [3] of 0.0369. For the same molecule, the Bliss excess [4] was 0.11, the Bliss excess [5] was 0.0796 and the Bliss excess [6] was 0.0273. The Bliss excess [7] was -0.0041, the Bliss excess [8] was -0.0081 and the Bliss excess [9] was -0.0442. The Bliss excess [10] was 0, the Bliss excess [11] was -0.0368 and the Bliss excess [12] was -0.0267. The Bliss excess [13] was 0.076, the Bliss excess [14] was -0.0046 and the Bliss excess [15] was 0.0016. The Bliss excess [16] was -0.0578, the Bliss excess [17] was -0.0159 and the Bliss excess [18] was 0.0156. For the same molecule, the Bliss excess [19] was 0.0565 and the Bliss excess [20] was -0.0205.

`Cc1cc2ncnn2cc1Nc1ncc2c(n1)n(C1CCOCC1)c(=O)n2C` [AZD7648] + CN(C)CCCOc1ccc(-c2ccc3ncc4c(c3c2)n(C2CCOCC2)c(=O)n4C)cn1 [AZD0156] (first compound max 10 µM, 7x7, partner max 1 µM) showed a Bliss excess [1] of 0.0139, a Bliss excess [2] of -0.0203 and a Bliss excess [3] of 0.0317. The Bliss excess [4] was -0.0241, the Bliss excess [5] was 0.0229 and the Bliss excess [6] was -0.0306. For the same molecule, the Bliss excess [7] was 0.0157, the Bliss excess [8] was 0.0567 and the Bliss excess [9] was 0.0032. It also gave a Bliss excess [10] of 0.0059, a Bliss excess [11] of -0.0169 and a Bliss excess [12] of -0.0411. For the same molecule, the Bliss excess [13] was -0.0198, the Bliss excess [14] was -0.0059 and the Bliss excess [15] was -0.0195. The Bliss excess [16] was -0.0485, the Bliss excess [17] was -0.061 and the Bliss excess [18] was -0.0384. The Bliss excess [19] was 0.0334 and the Bliss excess [20] was 0.0253.

`Cc1cc2ncnn2cc1Nc1ncc2c(n1)n(C1CCOCC1)c(=O)n2C` [AZD7648] + C[C@@H]1COCCN1C2=NC(=NC(=C2)C3(CC3)[S@](=N)(=O)C)C4=C5C=CNC5=NC=C4 [AZD6738] (first compound max 10 µM, 7x7, partner max 10 µM) gave a Bliss excess [1] of 0.054, a Bliss excess [2] of -0.0088 and a Bliss excess [3] of 0.0059. It also gave a Bliss excess [4] of 0.0052, a Bliss excess [5] of 0.0746 and a Bliss excess [6] of 0.0121. The Bliss excess [7] was 0.0018, the Bliss excess [8] was 0.0274 and the Bliss excess [9] was -0.0063. For the same molecule, the Bliss excess [10] was 0.0039, the Bliss excess [11] was 0.0134 and the Bliss excess [12] was -0.0101. For the same molecule, the Bliss excess [13] was 0.0017, the Bliss excess [14] was 0.0285 and the Bliss excess [15] was 0.081. It also gave a Bliss excess [16] of 0.0098, a Bliss excess [17] of 0.02 and a Bliss excess [18] of -0.0183. The Bliss excess [19] was 0.0565 and the Bliss excess [20] was 0.0005.
